Laboratory results as given in patent publication US5843910A, “Colchicine derivatives and the therapeutical use thereof” (Indena S.p.A., priority 1996, dated 1998).

Key:
Ovary tumoral cell line = assay: In vitro cytotoxic (antimitotic) activity on tumoral cell lines, ovary; assay type: cell-based
From the text: (§1) Taxol and colchicine are the comparison substances.
(§2) In vitro cytotoxic activity of some novel colchicine derivatives.

Colon tumoral cell line = assay: In vitro cytotoxic (antimitotic) activity on tumoral cell lines, colon; assay type: cell-based
From the text: as §1, §2

Breast tumoral cell line = assay: In vitro cytotoxic (antimitotic) activity on tumoral cell lines, breast; assay type: cell-based
From the text: as §1, §2

Lung tumoral cell line = assay: In vitro cytotoxic (antimitotic) activity on tumoral cell lines, lung; assay type: cell-based
From the text: as §1, §2

resistant cell lines = assay: cells; details: read-out: In vitro cytotoxic activity, IC50, Cell. resist.
From the text: as §1
Formulations for the parenteral, oral, transdermal, epicutaneous administrations can be conveniently prepared.

Compound	IC50 (Ovary tumoral cell line) [nM]	IC50 (Colon tumoral cell line) [nM]	IC50 (Breast tumoral cell line) [nM]	IC50 (Lung tumoral cell line) [nM]	IC50 (resistant cell lines) [nM]
CC(=O)O[C@H]1C(=O)[C@@]2(C)[C@H]([C@H](OC(=O)c3ccccc3)[C@]3(O)C[C@H](OC(=O)[C@H](O)[C@@H](NC(=O)c4ccccc4)c4ccccc4)C(C)=C1C3(C)C)[C@]1(OC(C)=O)CO[C@@H]1C[C@@H]2O [Taxol, reference compound]	6.1	3.5	3.2	1.7	299
COc1cc2c(c(OC)c1OC)-c1ccc(SC)c(=O)cc1[C@@H](NC(=O)[C@@H](NC(=O)C(F)(F)F)c1ccccc1)CC2 [Compound IVZ, N-(N-trifluoroacetyl-α-phenylglycyl)-desacetylthiocolchicine]	6.1	2.2	4.1	12	7
COc1cc2c(c(OC)c1OC)-c1ccc(OC)c(=O)cc1[C@@H](NC(C)=O)CC2 [Colchicine, colchicine]	5.3	3.9	4.4	16	112
COc1c(OC2CCCC2)cc2c(c1OC)-c1ccc(SC)c(=O)cc1[C@@H](NC(=O)C(F)(F)F)CC2 [Compound IZ, N-desacetyl-N-trifluoroacetyl-3-O-demethyl-3-O-cyclopentyl-thiocolchicine]	4.2	2.6	6.2	8	26
COc1c(OC(C)C)cc2c(c1OC)-c1ccc(SC)c(=O)cc1[C@@H](NC(=O)C(F)(F)F)CC2 [Compound IIZ, N-desacetyl-N-trifluoroacetyl-3-O-demethyl-3-O-isopropyl-thiocolchicine]	9.4	1.8	5	19	11
